# Measured values published in patent US6355799B1, “Substituted benzene compounds, process for their preparation, and herbicidal and defoliant compositions containing them” (ISK Americas Incorporated, priority 1997, dated 2002).
# Experiments:
# Assay type in all cases: in vivo
# [1] = system: redroot pigweed (Amaranthus retroflexus, AMARE); assay: Pre-emerge test, greenhouse herbicide activity screening; settings: pre-emerge, rated 14 days after application, 0 = no damage, 100 = complete death
# Procedure, shortened: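 Rating: 0–100 visual injury, 14 DAA. Application: acetone, 187 l/ha, 15–1000 g ai/ha, flat-fan track sprayer with nozzle 40–45 cm above soil or canopy. Post-emerge runs used 0.25% v/v surfactant on 2–3 leaf plants.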
# [2] = system: sicklepod (Cassia obtusifolia, CASOB); assay: as above; settings: pre-emerge, rated 14 days after application, 0 = no damage, 100 = complete death
# Procedure, shortened: (§1)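 Plants grown in 10 cm pots of sandy loam mix received acetone-dissolved compounds through a moving flat-fan nozzle. Doses ranged from 15 to 1000 g ai/ha. Pre-emerge pots were seeded one day earlier, post-emerge pots 8–21 days earlier. Fourteen days on, each pot was graded 0–100 for damage.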
# [3] = system: velvetleaf (Abutilon theophrasti, ABUTH); assay: as above; settings: pre-emerge, rated 14 days after application, 0 = no damage, 100 = complete death
# Procedure, shortened: as §1
# [4] = system: barnyardgrass (Echinochloa crus-galli, ECHCG); assay: as above; settings: pre-emerge, rated 14 days after application, 0 = no damage, 100 = complete death
# Procedure, shortened: as §1
# [5] = system: ivyleaf morningglory (Ipomoea hederacea, IPOHE); assay: as above; settings: pre-emerge, rated 14 days after application, 0 = no damage, 100 = complete death
# Procedure, shortened: as §1
# [6] = system: lambsquarters (Chenopodium album, CHEAL); assay: as above; settings: pre-emerge, rated 14 days after application, 0 = no damage, 100 = complete death
# Procedure, shortened: as §1
# [7] = system: large crabgrass (Digitaria sanguinalis, DIGSA); assay: as above; settings: pre-emerge, rated 14 days after application, 0 = no damage, 100 = complete death
# Procedure, shortened: as §1
# [8] = system: common ragweed (Ambrosia artemisizfolia L., AMBEL); assay: as above; settings: pre-emerge, rated 14 days after application, 0 = no damage, 100 = complete death
# Procedure, shortened: as §1
# [9] = system: green foxtail (Setaria viridis, SETVI); assay: as above; settings: pre-emerge, rated 14 days after application, 0 = no damage, 100 = complete death
# Procedure, shortened: as §1
# [10] = system: johnsongrass (Sorghum halepense, SORHA); assay: as above; settings: pre-emerge, rated 14 days after application, 0 = no damage, 100 = complete death
# Procedure, shortened: as §1
# [11] = system: sicklepod (Cassia obtusifolia, CASOB); assay: Post-emerge test, greenhouse herbicide activity screening; settings: phytotoxicity rating 0-100 (0 no damage, 100 complete death), 14 days after application
# Procedure, shortened: (§2)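 Compounds in acetone were track-sprayed at 187 l/ha, 15–1000 g ai/ha, onto sandy loam pots. Pre-emerge seeds were sown one day before spraying, with surface watering afterwards. Post-emerge plants were at the 2–3 leaf stage and sprayed with 0.25% v/v non-ionic surfactant. Injury was rated 0–100 at 14 days.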
# [12] = system: velvetleaf (Abutilon theophrasti, ABUTH); assay: as above; settings: phytotoxicity rating 0-100 (0 no damage, 100 complete death), 14 days after application
# Procedure, shortened: as §2
# [13] = system: barnyardgrass (Echinochloa crus-galli, ECHCG); assay: as above; settings: phytotoxicity rating 0-100 (0 no damage, 100 complete death), 14 days after application
# Procedure, shortened: as §2
# [14] = system: ivyleaf morningglory (Ipomoea hederacea, IPOHE); assay: as above; settings: phytotoxicity rating 0-100 (0 no damage, 100 complete death), 14 days after application
# Procedure, shortened: as §2
# [15] = system: lambsquarters (Chenopodium album, CHEAL); assay: as above; settings: phytotoxicity rating 0-100 (0 no damage, 100 complete death), 14 days after application
# Procedure, shortened: as §2
# [16] = system: large crabgrass (Digitaria sanguinalis, DIGSA); assay: as above; settings: phytotoxicity rating 0-100 (0 no damage, 100 complete death), 14 days after application
# Procedure, shortened: as §2
# [17] = system: redroot pigweed (Amaranthus retroflexus, AMARE); assay: as above; settings: phytotoxicity rating 0-100 (0 no damage, 100 complete death), 14 days after application
# Procedure, shortened: as §2
# [18] = system: common ragweed (Ambrosia artemisizfolia L., AMBEL); assay: as above; settings: phytotoxicity rating 0-100 (0 no damage, 100 complete death), 14 days after application
# Procedure, shortened: as §2
# [19] = system: green foxtail (Setaria viridis, SETVI); assay: as above; settings: phytotoxicity rating 0-100 (0 no damage, 100 complete death), 14 days after application
# Procedure, shortened: as §2
# [20] = system: johnsongrass (Sorghum halepense, SORHA); assay: as above; settings: phytotoxicity rating 0-100 (0 no damage, 100 complete death), 14 days after application
# Procedure, shortened: as §2
# [21] = system: field corn (Zea mays L., var. Dekalb 535, CORN); assay: Pre-emerge test, crop safety; settings: pre-emerge, rated 14 days after application, 0 = no damage, 100 = complete death
# Procedure, shortened: (§3)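 Herbicidal damage is scored 0 (none) to 100 (complete plant death) two weeks after a simulated field spray. Rates span 15–1000 g ai/ha, delivered in acetone at 187 l/ha. For post-emergence treatments, plants have 2–3 leaves and the spray carries 0.25% v/v non-ionic surfactant.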
# [22] = system: upland rice (Oryza sp., var. Tebonnet, RICE); assay: Pre-emerge test, crop safety; settings: pre-emerge, rated 14 days after application, 0 = no damage, 100 = complete death
# Procedure, shortened: as §3
# [23] = system: field corn (Zea mays L., var. Dekalb 535, CORN); assay: Post-emerge test, crop safety; settings: phytotoxicity rating 0-100 (0 no damage, 100 complete death), 14 days after application
# Procedure, shortened: (§4)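 Each test used a mechanized track sprayer delivering 187 l/ha of acetone solution at 15–1000 g ai/ha. Post-emerge foliage at 2–3 leaves was treated with added 0.25% v/v non-ionic surfactant and bottom-watered only. Injury was assessed on day 14, where 100 means total kill.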
# [24] = system: upland rice (Oryza sp., var. Tebonnet, RICE); assay: Post-emerge test, crop safety; settings: phytotoxicity rating 0-100 (0 no damage, 100 complete death), 14 days after application
# Procedure, shortened: as §4
structure (smiles),measurement,setting,value
COc1c(Cl)cc(F)c(-n2c(=O)cc(C(F)(F)F)n(C)c2=O)c1NC(C)=O [2-1],"Pre-emerge Herbicidal Activity AMARE (phytotoxicity rating, scale 0-100)",[1]; 63 g ai/ha,60
same,"Pre-emerge Herbicidal Activity AMARE (phytotoxicity rating, scale 0-100)",[1]; 250 g ai/ha,100
same,"Pre-emerge Herbicidal Activity CASOB (phytotoxicity rating, scale 0-100)",[2]; 63 g ai/ha,80
same,"Pre-emerge Herbicidal Activity CASOB (phytotoxicity rating, scale 0-100)",[2]; 250 g ai/ha,100
same,"Pre-emerge Herbicidal Activity ABUTH (phytotoxicity rating, scale 0-100)",[3]; 63 g ai/ha,100
same,"Pre-emerge Herbicidal Activity ABUTH (phytotoxicity rating, scale 0-100)",[3]; 250 g ai/ha,100
same,"Pre-emerge Herbicidal Activity ECHCG (phytotoxicity rating, scale 0-100)",[4]; 63 g ai/ha,10
same,"Pre-emerge Herbicidal Activity ECHCG (phytotoxicity rating, scale 0-100)",[4]; 250 g ai/ha,70
same,"Pre-emerge Herbicidal Activity IPOHE (phytotoxicity rating, scale 0-100)",[5]; 63 g ai/ha,95
same,"Pre-emerge Herbicidal Activity IPOHE (phytotoxicity rating, scale 0-100)",[5]; 250 g ai/ha,100
same,"Pre-emerge Herbicidal Activity CHEAL (phytotoxicity rating, scale 0-100)",[6]; 63 g ai/ha,90
same,"Pre-emerge Herbicidal Activity CHEAL (phytotoxicity rating, scale 0-100)",[6]; 250 g ai/ha,100
same,"Pre-emerge Herbicidal Activity DIGSA (phytotoxicity rating, scale 0-100)",[7]; 63 g ai/ha,20
same,"Pre-emerge Herbicidal Activity DIGSA (phytotoxicity rating, scale 0-100)",[7]; 250 g ai/ha,100
same,"Pre-emerge Herbicidal Activity AMBEL (phytotoxicity rating, scale 0-100)",[8]; 63 g ai/ha,50
same,"Pre-emerge Herbicidal Activity AMBEL (phytotoxicity rating, scale 0-100)",[8]; 250 g ai/ha,100
same,"Pre-emerge Herbicidal Activity SETVI (phytotoxicity rating, scale 0-100)",[9]; 63 g ai/ha,80
same,"Pre-emerge Herbicidal Activity SETVI (phytotoxicity rating, scale 0-100)",[9]; 250 g ai/ha,95
same,"Pre-emerge Herbicidal Activity SORHA (phytotoxicity rating, scale 0-100)",[10]; 63 g ai/ha,30
same,"Pre-emerge Herbicidal Activity SORHA (phytotoxicity rating, scale 0-100)",[10]; 250 g ai/ha,70
same,Post-emerge Herbicidal Activity CASOB,[11]; 63 g ai/ha,50
same,Post-emerge Herbicidal Activity CASOB,[11]; 250 g ai/ha,100
same,Post-emerge Herbicidal Activity ABUTH,[12]; 63 g ai/ha,100
same,Post-emerge Herbicidal Activity ABUTH,[12]; 250 g ai/ha,100
same,Post-emerge Herbicidal Activity ECHCG,[13]; 63 g ai/ha,0
same,Post-emerge Herbicidal Activity ECHCG,[13]; 250 g ai/ha,10
same,Post-emerge Herbicidal Activity IPOHE,[14]; 63 g ai/ha,100
same,Post-emerge Herbicidal Activity IPOHE,[14]; 250 g ai/ha,100
same,Post-emerge Herbicidal Activity CHEAL,[15]; 63 g ai/ha,95
same,Post-emerge Herbicidal Activity CHEAL,[15]; 250 g ai/ha,100
same,Post-emerge Herbicidal Activity DIGSA,[16]; 63 g ai/ha,0
same,Post-emerge Herbicidal Activity DIGSA,[16]; 250 g ai/ha,0
same,Post-emerge Herbicidal Activity AMARE,[17]; 63 g ai/ha,50
same,Post-emerge Herbicidal Activity AMARE,[17]; 250 g ai/ha,100
same,Post-emerge Herbicidal Activity AMBEL,[18]; 63 g ai/ha,30
same,Post-emerge Herbicidal Activity AMBEL,[18]; 250 g ai/ha,85
same,Post-emerge Herbicidal Activity SETVI,[19]; 63 g ai/ha,0
same,Post-emerge Herbicidal Activity SETVI,[19]; 250 g ai/ha,30
same,Post-emerge Herbicidal Activity SORHA,[20]; 63 g ai/ha,0
same,Post-emerge Herbicidal Activity SORHA,[20]; 250 g ai/ha,0
same,"Pre-emerge crop damage CORN (phytotoxicity rating, scale 0-100)",[21]; 63 g ai/ha,30
same,"Pre-emerge crop damage CORN (phytotoxicity rating, scale 0-100)",[21]; 250 g ai/ha,80
same,"Pre-emerge crop damage RICE (phytotoxicity rating, scale 0-100)",[22]; 63 g ai/ha,80
same,"Pre-emerge crop damage RICE (phytotoxicity rating, scale 0-100)",[22]; 250 g ai/ha,90
same,Post-emerge Herbicidal Activity CORN (crop damage),[23]; 63 g ai/ha,10
same,Post-emerge Herbicidal Activity CORN (crop damage),[23]; 250 g ai/ha,15
same,Post-emerge Herbicidal Activity RICE (crop damage),[24]; 63 g ai/ha,30
same,Post-emerge Herbicidal Activity RICE (crop damage),[24]; 250 g ai/ha,70
